System: SW620
Test: cell viability relative to vehicle (resazurin, 96 h); higher = more viable
Description: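 SW620 WT or MTHFD2-/- cells were treated for 96 h with a compound dilution series (log10 M) in RPMI with normal or dialysed FBS. Viability was read by resazurin and is given as % of vehicle.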

Cc1c(N2CCN(C)[C@@H](C)C2)ccc2c3c(c(=O)oc12)CN(C(=O)c1ccc(NS(C)(=O)=O)c(OC(F)(F)F)c1)CC3
Conditions	cell viability [%]
log10 compound concentration (M): -5, supplement / serum: 50μM Hypoxanthine, base medium: RPMI + dialysed FBS	59.7
log10 compound concentration (M): -5, supplement / serum: 50μM Thymidine + 50μM Hypoxanthine, base medium: RPMI + dialysed FBS	79
log10 compound concentration (M): -5, supplement / serum: 50μMThymidine, base medium: RPMI + dialysed FBS	13
log10 compound concentration (M): -5, supplement / serum: No metabolite, base medium: RPMI + dialysed FBS	11
log10 compound concentration (M): -5, supplement / serum: RPMI + Dialyzed FBS + 50μM Hypoxanthine, base medium: RPMI-1640	59.7
log10 compound concentration (M): -5, supplement / serum: RPMI + Dialyzed FBS, base medium: RPMI-1640	11
log10 compound concentration (M): -5, supplement / serum: RPMI + Normal FBS, base medium: RPMI-1640	78.9
log10 compound concentration (M): -5.47712, supplement / serum: 50μM Hypoxanthine, base medium: RPMI + dialysed FBS	73.8
log10 compound concentration (M): -5.47712, supplement / serum: 50μM Thymidine + 50μM Hypoxanthine, base medium: RPMI + dialysed FBS	87.3
log10 compound concentration (M): -5.47712, supplement / serum: 50μMThymidine, base medium: RPMI + dialysed FBS	16.4
log10 compound concentration (M): -5.47712, supplement / serum: No metabolite, base medium: RPMI + dialysed FBS	16.8
log10 compound concentration (M): -5.47712, supplement / serum: RPMI + Dialyzed FBS + 50μM Hypoxanthine, base medium: RPMI-1640	73.8
log10 compound concentration (M): -5.47712, supplement / serum: RPMI + Dialyzed FBS, base medium: RPMI-1640	16.8
log10 compound concentration (M): -5.47712, supplement / serum: RPMI + Normal FBS, base medium: RPMI-1640	59.76
log10 compound concentration (M): -5.95424, supplement / serum: 50μM Hypoxanthine, base medium: RPMI + dialysed FBS	79.2
log10 compound concentration (M): -5.95424, supplement / serum: 50μM Thymidine + 50μM Hypoxanthine, base medium: RPMI + dialysed FBS	82.2
log10 compound concentration (M): -5.95424, supplement / serum: 50μMThymidine, base medium: RPMI + dialysed FBS	37.8
log10 compound concentration (M): -5.95424, supplement / serum: No metabolite, base medium: RPMI + dialysed FBS	37.9
log10 compound concentration (M): -5.95424, supplement / serum: RPMI + Dialyzed FBS + 50μM Hypoxanthine, base medium: RPMI-1640	79.2
log10 compound concentration (M): -5.95424, supplement / serum: RPMI + Dialyzed FBS, base medium: RPMI-1640	37.9
log10 compound concentration (M): -5.95424, supplement / serum: RPMI + Normal FBS, base medium: RPMI-1640	66.4
log10 compound concentration (M): -6.43136, supplement / serum: 50μM Hypoxanthine, base medium: RPMI + dialysed FBS	78.9
log10 compound concentration (M): -6.43136, supplement / serum: 50μM Thymidine + 50μM Hypoxanthine, base medium: RPMI + dialysed FBS	89.1
log10 compound concentration (M): -6.43136, supplement / serum: 50μMThymidine, base medium: RPMI + dialysed FBS	64.5
log10 compound concentration (M): -6.43136, supplement / serum: No metabolite, base medium: RPMI + dialysed FBS	67.9
log10 compound concentration (M): -6.43136, supplement / serum: RPMI + Dialyzed FBS + 50μM Hypoxanthine, base medium: RPMI-1640	78.9
log10 compound concentration (M): -6.43136, supplement / serum: RPMI + Dialyzed FBS, base medium: RPMI-1640	67.9
log10 compound concentration (M): -6.43136, supplement / serum: RPMI + Normal FBS, base medium: RPMI-1640	74.7
log10 compound concentration (M): -6.90849, supplement / serum: 50μM Hypoxanthine, base medium: RPMI + dialysed FBS	85.8
log10 compound concentration (M): -6.90849, supplement / serum: 50μM Thymidine + 50μM Hypoxanthine, base medium: RPMI + dialysed FBS	72.8
log10 compound concentration (M): -6.90849, supplement / serum: 50μMThymidine, base medium: RPMI + dialysed FBS	72.2
log10 compound concentration (M): -6.90849, supplement / serum: No metabolite, base medium: RPMI + dialysed FBS	84.5
log10 compound concentration (M): -6.90849, supplement / serum: RPMI + Dialyzed FBS + 50μM Hypoxanthine, base medium: RPMI-1640	85.8
log10 compound concentration (M): -6.90849, supplement / serum: RPMI + Dialyzed FBS, base medium: RPMI-1640	84.5
log10 compound concentration (M): -6.90849, supplement / serum: RPMI + Normal FBS, base medium: RPMI-1640	76.6
log10 compound concentration (M): -7.38561, supplement / serum: 50μM Hypoxanthine, base medium: RPMI + dialysed FBS	68.9
log10 compound concentration (M): -7.38561, supplement / serum: 50μM Thymidine + 50μM Hypoxanthine, base medium: RPMI + dialysed FBS	79.5
log10 compound concentration (M): -7.38561, supplement / serum: 50μMThymidine, base medium: RPMI + dialysed FBS	65.2
log10 compound concentration (M): -7.38561, supplement / serum: No metabolite, base medium: RPMI + dialysed FBS	66.8
log10 compound concentration (M): -7.38561, supplement / serum: RPMI + Dialyzed FBS + 50μM Hypoxanthine, base medium: RPMI-1640	68.9
log10 compound concentration (M): -7.38561, supplement / serum: RPMI + Dialyzed FBS, base medium: RPMI-1640	66.8
log10 compound concentration (M): -7.38561, supplement / serum: RPMI + Normal FBS, base medium: RPMI-1640	75
log10 compound concentration (M): -7.86273, supplement / serum: 50μM Hypoxanthine, base medium: RPMI + dialysed FBS	83.7
log10 compound concentration (M): -7.86273, supplement / serum: 50μM Thymidine + 50μM Hypoxanthine, base medium: RPMI + dialysed FBS	83.3
log10 compound concentration (M): -7.86273, supplement / serum: 50μMThymidine, base medium: RPMI + dialysed FBS	70.4
log10 compound concentration (M): -7.86273, supplement / serum: No metabolite, base medium: RPMI + dialysed FBS	75.1
log10 compound concentration (M): -7.86273, supplement / serum: RPMI + Dialyzed FBS + 50μM Hypoxanthine, base medium: RPMI-1640	83.7
log10 compound concentration (M): -7.86273, supplement / serum: RPMI + Dialyzed FBS, base medium: RPMI-1640	75.1

Source: the supplement of paper PMC10132981, “Formate overflow drives toxic folate trapping in MTHFD1 inhibited cancer cells” (Nature Metabolism, 2023)
